{"source": "patent US20250367267A1", "about": "“TREATING AUTOIMMUNE DISEASES WITH INSULIN-LIKE GROWTH FACTOR 1 RECEPTOR LIGAND CONJUGATED TO AN AGENT” (Lirum Therapeutics, Inc., priority 2022, published 2025)", "key": {"[1]": {"test_system": "CD19+ B cells and CD3+ T cells in the peripheral blood of SLE patients", "settings": "Jacobi et al 2010; cited from earlier work"}, "[2]": {"test_system": "bulk subpopulations of PBMCs from patients with SLE, RA and SSc", "experiment": "Effect of LX-101 on bulk PBMC subpopulations (percentage of live cells by flow cytometry)", "type": "cell-based, human", "settings": "17 μM LX-101, three days", "excerpt": "Frozen peripheral blood mononuclear cells (PBMCs) were obtained from Discovery Life Sciences from patients diagnosed with lupus, rheumatoid arthritis, and scleroderma. One sample was obtained from a person diagnosed with systemic lupus erythematosus (SLE) undergoing active treatment with methotrexate, Celebrex, prednisone, and Benlysta. A second sample was obtained from a person diagnosed with scleroderma (SSc) before receiving treatment. A third sample was obtained from a person diagnosed with rheumatoid arthritis (RA) undergoing active treatment with Nabumetone. All samples were collected following informed consent.\nThe PBMCs were thawed, washed, and resuspended in AIM V media with 5% human AB serum (hAB) at a concentration of 1×10^6 cells/mL. PBMCs were seeded in a 24 well plate (1×10^6 cells/well) and treated with a 17 μM of LX-101 or hydrochloric acid (HCl) as a vehicle control. […]\nAfter the three day incubation with LX-101 or the vehicle control, the PBMCs were blocked with human TruStain FcX Fc receptor blocking solution, and stained with an antibody mixture with markers shown in Table 2. […] Data were analyzed with Kaluza software.\nThe effect of LX-101 was analyzed for both the bulk PBMC and IGF-1R^+ subpopulations. The percentages of live, B cells, CD4^+ T cells, CD8^+ T cells, NK cells, and NKT cells were determined."}, "[3]": {"test_system": "IGF-1R+ subpopulations of PBMCs from patients with SLE, RA and SSc", "experiment": "Effect of LX-101 on IGF-1R+ PBMC subpopulations (percentage of live IGF-1R+ cells by flow cytometry)", "type": "cell-based, human", "settings": "17 μM LX-101, three days", "excerpt": "Frozen peripheral blood mononuclear cells (PBMCs) were obtained from Discovery Life Sciences from patients diagnosed with lupus, rheumatoid arthritis, and scleroderma. One sample was obtained from a person diagnosed with systemic lupus erythematosus (SLE) undergoing active treatment with methotrexate, Celebrex, prednisone, and Benlysta. A second sample was obtained from a person diagnosed with scleroderma (SSc) before receiving treatment. A third sample was obtained from a person diagnosed with rheumatoid arthritis (RA) undergoing active treatment with Nabumetone. All samples were collected following informed consent. The PBMCs were thawed, washed, and resuspended in AIM V media with 5% human AB serum (hAB) at a concentration of 1×10^6 cells/mL. PBMCs were seeded in a 24 well plate (1×10^6 cells/well) and treated with a 17 μM of LX-101 or hydrochloric acid (HCl) as a vehicle control. LX-101 was supplied at a concentration of 4 mM (where the concentration is expressed in terms of the amount of methotrexate in the drug) in 10 mM HC1. The vehicle control groups received the same concentration of HCl as that in the LX-101 solution received by the treatment group. PBMCs were incubated at 37° C. with 5% CO2 for three days. After the three day incubation with LX-101 or the vehicle control, the PBMCs were blocked with human TruStain FcX Fc receptor blocking solution, and stained with an antibody mixture with markers shown in Table 2. Cells were fixed and flow cytometric data were collected for 50,000 live cell events using a BD LSRFortessa X-20 flow cytometer. Data were analyzed with Kaluza software. The effect of LX-101 was analyzed for both the bulk PBMC and IGF-1R^+ subpopulations. The percentages of live, B cells, CD4^+ T cells, CD8^+ T cells, NK cells, and NKT cells were determined."}, "IGFBPs": {"test_system": "IGFBPs", "settings": "known in the art (U.S. Pat. No. 4,876,242; Francis et al. 1992); cited from earlier work"}, "IGF-1R": {"biological_target": "IGF-1R (Homo sapiens, UniProt P08069)", "sequence (P08069 31-736 limits assumed, species assumed)": "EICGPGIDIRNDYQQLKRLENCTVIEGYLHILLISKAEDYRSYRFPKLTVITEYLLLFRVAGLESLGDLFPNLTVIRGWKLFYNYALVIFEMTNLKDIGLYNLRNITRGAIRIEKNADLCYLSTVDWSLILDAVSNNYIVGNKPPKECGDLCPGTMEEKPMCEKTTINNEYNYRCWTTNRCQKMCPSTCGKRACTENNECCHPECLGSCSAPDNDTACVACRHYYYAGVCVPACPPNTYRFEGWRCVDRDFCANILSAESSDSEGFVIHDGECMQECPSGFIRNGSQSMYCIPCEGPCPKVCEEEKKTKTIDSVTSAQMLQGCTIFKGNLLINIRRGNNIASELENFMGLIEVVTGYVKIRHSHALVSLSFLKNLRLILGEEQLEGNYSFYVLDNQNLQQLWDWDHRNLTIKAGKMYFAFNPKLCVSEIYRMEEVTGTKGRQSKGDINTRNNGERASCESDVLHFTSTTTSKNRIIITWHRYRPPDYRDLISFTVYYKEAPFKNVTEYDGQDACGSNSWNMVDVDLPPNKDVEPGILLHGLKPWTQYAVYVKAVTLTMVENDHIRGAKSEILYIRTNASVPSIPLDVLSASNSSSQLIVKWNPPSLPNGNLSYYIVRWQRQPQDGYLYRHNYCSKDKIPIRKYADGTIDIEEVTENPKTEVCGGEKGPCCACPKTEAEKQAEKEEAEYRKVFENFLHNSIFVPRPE", "sequence (P08069 741-1367 partner limits assumed, species assumed)": "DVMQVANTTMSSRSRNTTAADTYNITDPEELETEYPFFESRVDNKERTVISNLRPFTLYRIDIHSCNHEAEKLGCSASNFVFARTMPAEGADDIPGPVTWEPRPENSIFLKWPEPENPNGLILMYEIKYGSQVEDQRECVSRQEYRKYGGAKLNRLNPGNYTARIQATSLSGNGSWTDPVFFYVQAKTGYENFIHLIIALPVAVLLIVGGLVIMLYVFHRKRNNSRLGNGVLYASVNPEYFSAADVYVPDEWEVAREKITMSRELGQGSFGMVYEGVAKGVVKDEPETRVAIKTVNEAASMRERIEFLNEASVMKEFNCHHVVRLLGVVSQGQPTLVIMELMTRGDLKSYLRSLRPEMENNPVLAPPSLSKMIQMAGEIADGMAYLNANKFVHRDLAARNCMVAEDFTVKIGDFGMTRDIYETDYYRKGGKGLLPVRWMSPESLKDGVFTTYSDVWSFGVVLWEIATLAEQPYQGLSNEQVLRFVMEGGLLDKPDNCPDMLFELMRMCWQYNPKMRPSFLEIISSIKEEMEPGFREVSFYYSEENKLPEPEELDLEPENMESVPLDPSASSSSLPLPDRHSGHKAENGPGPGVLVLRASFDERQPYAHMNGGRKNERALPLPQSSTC", "settings": "Hakuno et al. 2018; cited from earlier work"}, "[4]": {"settings": "PBMCs from SLE, RA and SSc patients"}}, "note": "“Also recorded” adds a separate entry of the source."}
{"molecule": "Benlysta: a B lymphocyte stimulator (BLyS)-specific inhibitor", "values": [{"measurement": "number of CD3+ T cells", "setting": "[1]", "result": "not affected"}, {"measurement": "total CD19+ B cells in the peripheral blood", "setting": "[1]", "result": "decrease"}]}
{"molecule": "LX-101", "values": [{"measurement": "off-target effects in IGF-1R− cells", "setting": "[2]", "result": "Little off-target effects"}, {"measurement": "percentage of live B cells, CD4+ T cells, CD8+ T cells, NK cells and NKT cells in the bulk PBMC population, vs vehicle control", "setting": "[2]", "result": "Little difference"}, {"measurement": "percentage of IGF-1R+CD19+ B cells vs vehicle control", "setting": "[3]; [4]", "result": "reduced percentages; also recorded: reduction"}, {"measurement": "percentage of live IGF-1R+ cells (all subpopulations) vs vehicle control", "setting": "[3]; [4]", "result": "marked reductions; also recorded: Reduced percentages"}, {"measurement": "IGF-1R+CD3+CD8+ T cells vs vehicle control", "setting": "[3]; SLE, RA and SSc samples", "result": "reduction; also recorded: reduced percentages"}, {"measurement": "IGF-1R+CD56+CD3+ natural killer T (NKT) cells vs vehicle control", "setting": "[3]; SLE, RA and SSc samples", "result": "modest reduction; also recorded: reduced percentages"}, {"measurement": "IGF-1R+CD3+CD4+ T cells vs vehicle control", "setting": "[3]; SLE, RA and SSc samples, especially RA sample", "result": "substantial reduction; also recorded: reduced percentages"}, {"measurement": "IGF-1R+CD56+CD3− natural killer (NK) cells vs vehicle control", "setting": "[3]; particularly samples from SLE and RA patients", "result": "reduction; also recorded: reduced percentages"}]}
{"molecule": "R3-IGF-1: glutamic acid in position 3 of native human IGF-1 is substituted by arginine", "values": [{"measurement": "binding affinity for IGFBPs compared to wildtype IGF-1", "setting": "IGFBPs", "result": "reduced binding affinity"}]}
{"molecule": "des (1-3) IGF-1: lacks the first three amino acids of human IGF-1", "values": [{"measurement": "binding affinity for IGFBPs compared to wildtype IGF-1", "setting": "IGFBPs", "result": "reduced binding affinity"}]}
{"molecule": "insulin: native ligand to the IGF-1R; two chains connected by disulfide bonds", "values": [{"measurement": "affinity for IGF-1R, fold lower than the IGFs", "setting": "IGF-1R", "result": "50- to 100 fold"}]}
{"molecule": "IGF132: first 17 amino acids of the B chain of insulin replace the first 16 amino acids of human IGF-1 (protein) FVNQHLCGSHLVEALYLVCGDRGFYFNKPTGYGSSSRRAPQTGIVDECCFRSCDLRRLEMYCAPLKPAKSA", "values": [{"measurement": "binding affinity for IGFBPs compared to wildtype IGF-1", "setting": "IGFBPs", "result": "reduced binding affinity"}]}
